US20210121414A1, “METHOD FOR PRODUCING A PHARMACEUTICAL COMPOSITION OF POLYMERIC NANOPARTICLES FOR TREATING NEUROPATHIC PAIN CAUSED BY […] COMPRESSION” (UNIVERSIDAD DE SEVILLA, priority 2015, published 2021)

Assays:
central nervous system = settings: rats; cited from earlier work
[1] = cited from earlier work
[2] = tested on: established mechanical hyperalgesia; settings: cited from earlier work
[3] = tested on: Chronic constriction injury (CCI) model of mononeuropathy, mechanical hyperalgesia; assay: Paw-pinch test of mechanical hyperalgesia in chronic constriction injury (CCI) rats after single oral administration; type: in vivo, Harlan Sprague-Dawley male albino rats; settings: CB13 alone
Method: Harlan Sprague-Dawley male albino rats (230-350 g), provided by the University of Cádiz Animal Experimentation Unit registered under the number ES110120000210, were used. The animals were kept under standard housing conditions (21° C., 12h light-dark cycle, “ad libitum” water and food). All experiments were carried out in accordance with the ethical guidelines for working with experimental animals proposed by the International Association for the Study of Pain […] and by the Federation of Laboratory Animal Science Associations (FELASA).
Chronic constriction injury, (CCI) was used as a model of mononeuropathy since it is a model that correlates well with the symptoms presented in the patients (spontaneous pain, mechanical and thermal allodynia and hyperalgesia.
Nociceptive behavior was evaluated in the ipsi- and contralateral paw to the ligation for sciatic nerve […]. The presence of mechanical hyperalgesia was assessed by using the paw-pinch test. Thus, gradual, increasing pressure (starting with 30 g of pressure) was exerted on the rear part of the paw using a motorized device (Analgesia Meter 57215, UGO BASILE). The cut-off pressure was set at 250 g to prevent possible damage to the paw. Two measurements were taken on each paw, 5 minutes apart, and the average value was used for statistical purposes. Mechanical hyperalgesia appeared as the pressure on the paw decreased.

[4] = cited from earlier work; remark: listed apart in the source

SMILES: CCCCCOc1ccc(C(=O)c2cccc3ccccc23)c2ccccc12 [CB13, 1-naphthalenyl[4-(pentyloxy)-1-naphthalenyl]methanone]
- dose with significant CNS effects relative to the oral dose required to reverse hyperalgesia (central nervous system): 20 times
- penetration into the brain ([1]; in vivo): limited penetration into the brain
- absorption after oral administration ([1]; oral): not completely absorbed
- antihyperalgesic activity in animal models ([2]; animal models): powerful antihyperalgesic activity
- effect on established mechanical hyperalgesia ([2]; oral administration and local injection into the hind paw, pig and rat): reverses the established mechanical hyperalgesia
- anti-hyperalgesic effect 9 hours after administration ([3]; 9 hours): continued to be effective but to a lesser extent
- anti-hyperalgesic effect after 24 hours ([3]; 24 hours): its effectiveness had disappeared
- aqueous solubility [4]: 0.001-0.002 mg/m L
